Measurements from patent publication US20180153899A1, “PHARMACEUTICAL COMPOSITIONS” (Novartis AG, priority 2015, published 2018).
Where two headings read alike, the source gives them in different places.

Assay: Clinical study, steady state PK (Cycle 1 Day 15) after daily oral tablets of example 1
Format: in vivo, human
Conditions: for AUC(0-t) / Cmax / Tmax / half-life / AUC: human, in vivo; for Tmax: median (minimum-maximum); for half-life: read-out: T½ (converted)
Experimental: Non-small cell lung cancer patients with EGFR T790M mutation were enrolled in a clinical study and received escalating doses of EGF816 ranging from 100 mg to 225 mg daily oral doses by using the tablets as described in example 1.

[1] = 150 mg qd (N = 6), geometric mean (CV %)
[2] = 200 mg qd (N = 7), geometric mean (CV %)
[3] = 225 mg qd (N = 7), geometric mean (CV %)
[4] = 100 mg qd (N = 3), geometric mean (CV %)

CLss/F [1]: 238 (38) mL/min
CLss/F [2]: 247 (58) mL/min
CLss/F [3]: 222 (37) mL/min
AUC(0-t) [4]: 9050 ng·h/mL
Cmax [4]: 519 ng/mL
Tmax (100 mg qd (N = 3)): 6 h
half-life (100 mg qd (N = 3), only one value calculated): 14 h
AUC [1]: 10500 ng·h/mL
AUC(0-t) [1]: 10300 ng·h/mL
Cmax [1]: 675 ng/mL
half-life [1]: 17 h
Tmax (150 mg qd (N = 6)): 5 h
AUC [2]: 13500 ng·h/mL
AUC(0-t) [2]: 13500 ng·h/mL
Cmax [2]: 939 ng/mL
half-life [2]: 13 h
Tmax (200 mg qd (N = 7)): 3 h
AUC [3]: 16900 ng·h/mL
AUC(0-t) [3]: 12100 ng·h/mL
Cmax [3]: 1270 ng/mL
half-life [3]: 10 h
Tmax (225 mg qd (N = 7)): 3 h
SMILES: Cc1cc(C(=O)Nc2nc3cccc(Cl)c3n2[C@@H]2CCCCN(C(=O)/C=C/CN(C)C)C2)ccn1 [EGF816, (R,E)-N-(7-chloro-1-(1-(4-(dimethylamino)but-2-enoyl)azepan-3-yl)-1H-benzo[d]imidazol-2-yl)-2-methylisonicotinamide]
